Among the data in US20250230165A1, “HETEROCYCLIC COMPOUNDS FOR USE IN THE TREATMENT OF CANCER” (ARTIOS PHARMA LIMITED, priority 2021, published 2025) are Kinact/Kl values, retold here.

Molecules are shown by their SMILES.

This assay deals with T1, Human Polθ polymerase domain (aa1820-2590) (Homo sapiens, UniProt O75417).
T1 construct: Human Polθ polymerase domain (aa1820-2590) was expressed in E. coli; made in house; host or cells: E. coli
T1 sequence (O75417 1820-2590): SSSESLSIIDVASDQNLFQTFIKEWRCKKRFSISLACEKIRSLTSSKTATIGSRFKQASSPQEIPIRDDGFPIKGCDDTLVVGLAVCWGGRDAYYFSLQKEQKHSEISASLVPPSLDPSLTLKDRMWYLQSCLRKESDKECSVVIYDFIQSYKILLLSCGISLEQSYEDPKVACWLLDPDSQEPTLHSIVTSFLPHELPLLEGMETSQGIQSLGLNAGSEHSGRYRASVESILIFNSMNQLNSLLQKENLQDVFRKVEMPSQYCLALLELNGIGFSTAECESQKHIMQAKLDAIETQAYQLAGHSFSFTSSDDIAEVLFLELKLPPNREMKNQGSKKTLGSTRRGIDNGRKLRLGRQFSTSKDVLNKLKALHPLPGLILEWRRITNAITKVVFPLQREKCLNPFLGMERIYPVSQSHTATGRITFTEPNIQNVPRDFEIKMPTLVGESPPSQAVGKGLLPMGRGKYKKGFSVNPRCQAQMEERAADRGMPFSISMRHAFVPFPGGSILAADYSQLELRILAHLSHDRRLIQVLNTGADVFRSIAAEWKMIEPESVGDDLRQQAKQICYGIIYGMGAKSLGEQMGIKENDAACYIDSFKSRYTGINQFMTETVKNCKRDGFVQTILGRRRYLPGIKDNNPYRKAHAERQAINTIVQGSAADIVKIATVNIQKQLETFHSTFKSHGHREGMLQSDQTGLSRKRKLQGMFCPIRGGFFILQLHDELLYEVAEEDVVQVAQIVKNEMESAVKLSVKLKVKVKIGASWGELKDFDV
Kind of assay: Polθ Polymerase Domain Kinact/KI Assay (PicoGreen). The assay is classed as biochemical. The note with it: 0.8 nM Polθ, 100 nM DNA substrate, kobs vs [I] fit for 2-step covalent inhibitor. In outline: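 Kinact and KI derive from fitting kobs versus [I], where kobs were fitted from EDTA-stopped PicoGreen time courses (up to 60 min) in Tris pH 7.5 buffer with 1% DMSO, 0.8 nM enzyme, 100 nM DNA and […].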
As to `C=CC(=O)N1CC[C@H]1c1nnc(CN2C[C@H]3CC(=O)N(c4cc(C(F)(F)F)cc(C)n4)[C@@H]3C(=O)N(C)c3cccc(C)c32)o1` [Example 275, (3aR,11aS)-5-((5-((S)-1-acryloylazetidin-2-yl)-1,3,4-oxadiazol-2-yl)methyl)-6,10-dimethyl-1-(6-methyl-4-(trifluoromethyl)pyridin-2-yl)-1,3a,4,5,10,11a-hexahydro-2H-benzo[b]pyrrolo[2,3-f][1,4]diazocine-2,11(3H)-dione], the Kinact/Kl was 800000 M⁻¹ s⁻¹. For `C=CC(=O)N1Cc2cc(CN3C[C@H]4CC(=O)N(c5cc(C(F)(F)F)cc(C)n5)[C@@H]4C(=O)N(C)c4cccc(C)c43)cnc2C1CO` (single isomer, unassigned) [Example 232], the Kinact/Kl was 1.89e+06 M⁻¹ s⁻¹. The figure for `C=C(C)C(=O)N1CC(OCCCN2C[C@H]3CC(=O)N(c4cc(C(F)(F)F)cc(C)n4)[C@@H]3C(=O)N(C)c3cccc(Cl)c32)C1` [Example 165, (3aR,11aS)-6-chloro-5-(3-((1-methacryloylazetidin-3-yl)oxy)propyl)-10-methyl-1-(6-methyl-4-(trifluoromethyl)pyridin-2-yl)-1,3a,4,5,10,11a-hexahydro-2H-benzo[b]pyrrolo[2,3-f][1,4]diazocine-2,11(3H)-dione] is 1.18e+06 M⁻¹ s⁻¹; for `C=CC(=O)N1CC(N2CCC(F)(CN3C[C@H]4CC(=O)N(c5cc(C(F)(F)F)cc(C)n5)[C@@H]4C(=O)N(C)c4cccc(C)c43)CC2)C1` [Example 94, (3aR,11aS)-5-((1-(1-acryloylazetidin-3-yl)-4-fluoropiperidin-4-yl)methyl)-6,10-dimethyl-1-(6-methyl-4-(trifluoromethyl)pyridin-2-yl)-1,3a,4,5,10,11a-hexahydro-2H-benzo[b]pyrrolo[2,3-f][1,4]diazocine-2,11(3H)-dione] it is 1.54e+06 M⁻¹ s⁻¹. Under `C=CC(=O)N1CC2(CN(CCN3C[C@H]4CC(=O)N(c5cc(C(F)(F)F)cc(C)n5)[C@@H]4C(=O)N(C)c4cccc(C)c43)CCN2)C1` [Example 114, (3aR,11aS)-5-(2-(2-acryloyl-2,5,8-triazaspiro[3.5]nonan-8-yl)ethyl)-6,10-dimethyl-1-(6-methyl-4-(trifluoromethyl)pyridin-2-yl)-1,3a,4,5,10,11a-hexahydro-2H-benzo[b]pyrrolo[2,3-f][1,4]diazocine-2,11(3H)-dione] stands 580000 M⁻¹ s⁻¹; under `C=C(CN(C)C)C(=O)Nc1ccc(CN2C[C@H]3CC(=O)N(c4cc(C(F)(F)F)cc(C)n4)[C@@H]3C(=O)N(C)c3cccc(C)c32)cc1OC` [Example 210, N-(4-(((3aR,11aS)-6,10-dimethyl-1-(6-methyl-4-(trifluoromethyl)pyridin-2-yl)-2,11-dioxo-1,2,3,3a,4,10,11,11a-octahydro-5H-benzo[b]pyrrolo[2,3-f][1,4]diazocin-5-yl)methyl)-2-methoxyphenyl)-2-((dimethylamino)methyl)acrylamide], 630000 M⁻¹ s⁻¹; under `CC#CC(=O)N1CCn2cc(CN3C[C@H]4CC(=O)N(c5cc(C(F)(F)F)cc(C)n5)[C@@H]4C(=O)N(C)c4cccc(C)c43)nc2C1` [Example 201, (3aR,11aS)-5-((7-(but-2-ynoyl)-5,6,7,8-tetrahydro-imidazo[1,2-a]pyr-azin-2-yl)methyl)-6,10-dimethyl-1-(6-methyl-4-(tri-fluoromethyl)pyr-idin-2-yl)-1,3a,4,5,10,11a-hexa-hydro-2H-benzo [b]pyrrolo[2,3-f] [1,4]diazocine-2,11(3H)-dione], 2.8e+06 M⁻¹ s⁻¹. As to `C=CC(=O)N1CC(N(C)CCCN2C[C@H]3CC(=O)N(c4cc(C(F)(F)F)cc(C)n4)[C@@H]3C(=O)N(C)c3cccc(F)c32)C1` [Example 71, (3aR,11aS)-5-(3-((1-acryloylazetidin-3-yl)(methyl)amino)propyl)-6-fluoro-10-methyl-1-(6-methyl-4-(trifluoromethyl)pyridin-2-yl)-1,3a,4,5,10,11a-hexahydro-2H-benzo[b]pyrrolo[2,3-f][1,4]diazocine-2,11(3H)-dione], the Kinact/Kl was determined as 420000 M⁻¹ s⁻¹.

For `C=CC(=O)N1CCN(c2nc(CN3C[C@H]4CC(=O)N(c5cc(C(F)(F)F)cc(C)n5)[C@@H]4C(=O)N(C)c4cccc(F)c43)co2)CC1` [Example 124, (3aR,11aS)-5-((2-(4-acryloylpiperazin-1-yl)oxazol-4-yl)methyl)-6-fluoro-10-methyl-1-(6-methyl-4-(trifluoromethyl)pyridin-2-yl)-1,3a,4,5,10,11a-hexahydro-2H-benzo[b]pyrrolo[2,3-f][1,4]diazocine-2,11(3H)-dione], the Kinact/Kl was 11000 M⁻¹ s⁻¹. The molecule `C=CC(=O)N1C[C@H]2CN(CCN3C[C@H]4CC(=O)N(c5cc(C(F)(F)F)cc(C)n5)[C@@H]4C(=O)N(C)c4cccc(F)c43)CC[C@H]2C1` (single isomer, unassigned) [Example 25b] had a Kinact/Kl of 250000 M⁻¹ s⁻¹.

`C=CC(=O)N1CC(n2cnc(CN3C[C@H]4CC(=O)N(c5cc(C(F)(F)F)cc(C)n5)[C@@H]4C(=O)N(C)c4cccc(F)c43)n2)C1` [Example 123, (3aR,11aS)-5-((1-(1-acryloylazetidin-3-yl)-1H-1,2,4-triazol-3-yl)methyl)-6-fluoro-10-methyl-1-(6-methyl-4-(trifluoromethyl)pyridin-2-yl)-1,3a,4,5,10,11a-hexahydro-2H-benzo[b]pyrrolo[2,3-f][1,4]diazocine-2,11(3H)-dione] showed a Kinact/Kl of 270000 M⁻¹ s⁻¹. With `C#CC(=O)N1Cc2nc(CN3C[C@H]4CC(=O)N(c5cc(C(F)(F)F)cc(C)n5)[C@@H]4C(=O)N(C)c4cccc(Cl)c43)cn2C[C@H]1C` (racemic) [Example 172b, (3aR,11aS)-6-chloro-10-meth-yl-1-(6-methyl-4-(trifluoro-methyl)pyridin-2-yl)-5-(((R/S)-6-methyl-7-propioloyl-5,6,7,8-tetra-hydroimidazo [1,2-a]pyrazin-2-yl)methyl)-1,3a,4,5,10,11a-hexahydro-2H-benzo[b]pyrrolo [2,3-f][1,4]diazo-cine-2,11(3H)-dione], the Kinact/Kl is 280000 M⁻¹ s⁻¹.

Take `C=CC(=O)N1C[C@H]2CCN(CCN3C[C@H]4CC(=O)N(c5cc(C(F)(F)F)cc(C)n5)[C@@H]4C(=O)N(C)c4cccc(F)c43)C[C@H]2C1` (relative stereo) [Example 25a, (3aR,11aS)-5-(2-((3aS/R,7aS/R)-2-acryloyloctahydro-5H-pyrrolo[3,4-c]pyridin-5-yl)ethyl)-6-fluoro-10-methyl-1-(6-methyl-4-(trifluoromethyl)pyridin-2-yl)-1,3a,4,5,10,11a-hexahydro-2H-benzo[b]pyrrolo[2,3-f][1,4]diazocine-2, 11(3H)-dione]: the Kinact/Kl came to 200000 M⁻¹ s⁻¹. The figure for `C=CC(=O)N1CCn2cc(CN3C[C@H]4CC(=O)N(c5cc(C(F)(F)F)cc(C)n5)[C@@H]4C(=O)N(C)c4cccc(Cl)c43)nc2C1` [Example 136, (3aR,11aS)-5-((7-acryloyl-5,6,7,8-tetrahydroimidazo[1,2-a]pyrazin-2-yl)methyl)-6-chloro-10-methyl-1-(6-methyl-4-(trifluoromethyl)pyridin-2-yl)-1,3a,4,5,10,11a-hexahydro-2H-benzo[b]pyrrolo[2,1-f][1,4]diazocine-2,11(3H)-dione] is 6.47e+06 M⁻¹ s⁻¹; for `C=C(CN(C)C)C(=O)N1CC(C(=O)N(C)CCN2C[C@H]3CC(=O)N(c4cc(C(F)(F)F)cc(C)n4)[C@@H]3C(=O)N(C)c3cccc(Cl)c32)C1` [Example 65, N-(2-((3aR,11aS)-6-chloro-10-methyl-1-(6-methyl-4-(trifluoromethyl)pyridin-2-yl)-2,11-dioxo-1,2,3,3a,4,10,11,11a-octahydro-5H-benzo[b]pyrrolo[2,3-f][1,4]diazocin-5-yl)ethyl)-1-(2-((dimethylamino)methyl)acryloyl)-N-methylazetidine-3-carboxamide] it is 4.96e+06 M⁻¹ s⁻¹; for `C=CC(=O)N1CC(N2CC[C@H](CCN3C[C@H]4CC(=O)N(c5cc(C(F)(F)F)cc(C)n5)[C@@H]4C(=O)N(C)c4cccc(Cl)c43)C2)C1` [Example 221, (3aR,11aS)-5-(2-((R)-1-(1-acryloylazetidin-3-yl)pyrrolidin-3-yl)ethyl)-6-chloro-10-methyl-1-(6-methyl-4-(trifluoromethyl)pyridin-2-yl)-1,3a,4,5,10,11a-hexahydro-2H-benzo[b] pyrrolo[2,3-f] [1,4]diazocine-2,11(3H)-dione] it is 3.03e+06 M⁻¹ s⁻¹.
